This note sets out measurements from ChEMBL document CHEMBL4312034, “Virtual screening-driven discovery of dual 5-HT6/5-HT2A receptor ligands with pro-cognitive properties” (Eur J Med Chem, 2020).

In data set [1] the target is T1, 5-hydroxytryptamine receptor 6 (Homo sapiens, UniProt P50406). Put plainly: Displacement of [3H]-LSD from human 5-HT6R expressed in HEK293 cells after 1 hr by microbeta plate reader analysis. The class given is cell-based.
The target in data set [2] is 5-hydroxytryptamine receptor 2A (Homo sapiens, UniProt P28223). Put plainly: Binding affinity to human 5-HT2AR expressed in HEK293 cells by competitive binding assay. The class given is cell-based.
5-hydroxytryptamine receptor 2A, sequence (P28223 whole entry): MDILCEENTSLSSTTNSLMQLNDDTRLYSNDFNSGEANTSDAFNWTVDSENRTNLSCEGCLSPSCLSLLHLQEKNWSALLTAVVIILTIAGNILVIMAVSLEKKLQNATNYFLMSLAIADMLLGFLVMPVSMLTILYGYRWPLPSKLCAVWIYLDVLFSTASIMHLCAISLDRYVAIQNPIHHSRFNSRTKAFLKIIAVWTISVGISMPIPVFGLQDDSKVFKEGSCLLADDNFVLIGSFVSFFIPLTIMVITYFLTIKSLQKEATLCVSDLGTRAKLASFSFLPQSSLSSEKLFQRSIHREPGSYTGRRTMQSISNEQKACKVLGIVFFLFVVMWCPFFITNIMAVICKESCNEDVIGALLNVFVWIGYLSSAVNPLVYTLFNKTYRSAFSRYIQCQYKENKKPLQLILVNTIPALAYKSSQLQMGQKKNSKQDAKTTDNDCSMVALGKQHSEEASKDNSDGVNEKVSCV
Data set [3] has as its target T2, 5-hydroxytryptamine receptor 1A (Homo sapiens, UniProt P08908).
T2 sequence (P08908 whole entry): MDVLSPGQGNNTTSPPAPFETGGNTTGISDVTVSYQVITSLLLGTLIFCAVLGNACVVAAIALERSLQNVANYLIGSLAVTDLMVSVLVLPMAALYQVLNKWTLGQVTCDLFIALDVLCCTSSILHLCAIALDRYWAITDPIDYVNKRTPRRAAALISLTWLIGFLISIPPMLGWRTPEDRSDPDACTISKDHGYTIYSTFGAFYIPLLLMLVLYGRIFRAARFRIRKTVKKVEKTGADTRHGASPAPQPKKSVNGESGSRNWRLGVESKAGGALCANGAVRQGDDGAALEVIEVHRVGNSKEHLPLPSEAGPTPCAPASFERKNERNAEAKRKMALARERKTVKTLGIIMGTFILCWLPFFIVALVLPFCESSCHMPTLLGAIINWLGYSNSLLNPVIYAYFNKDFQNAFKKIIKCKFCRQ
The experiment in a line: Displacement of [3H]-8-OH-DPAT from human 5-HT1A receptor expressed in HEK293 cells after 1 hr by microbeta plate reader analysis. It is filed as cell-based.

Data set [4] concerns the target 5-hydroxytryptamine receptor 7 (Homo sapiens, UniProt P34969). The experiment in a line: Displacement of [3H]-CT from human 5-HT7 receptor expressed in HEK293 cells after 1 hr by microbeta plate reader analysis. The class given is cell-based.
Another data set deals with D(2) dopamine receptor (Homo sapiens, UniProt P14416). Put plainly: Displacement of [3H]-raclopride from human D2R expressed in HEK293 cells after 1 hr by microbeta plate reader analysis. The class given is cell-based.
D(2) dopamine receptor, sequence (P14416 whole entry): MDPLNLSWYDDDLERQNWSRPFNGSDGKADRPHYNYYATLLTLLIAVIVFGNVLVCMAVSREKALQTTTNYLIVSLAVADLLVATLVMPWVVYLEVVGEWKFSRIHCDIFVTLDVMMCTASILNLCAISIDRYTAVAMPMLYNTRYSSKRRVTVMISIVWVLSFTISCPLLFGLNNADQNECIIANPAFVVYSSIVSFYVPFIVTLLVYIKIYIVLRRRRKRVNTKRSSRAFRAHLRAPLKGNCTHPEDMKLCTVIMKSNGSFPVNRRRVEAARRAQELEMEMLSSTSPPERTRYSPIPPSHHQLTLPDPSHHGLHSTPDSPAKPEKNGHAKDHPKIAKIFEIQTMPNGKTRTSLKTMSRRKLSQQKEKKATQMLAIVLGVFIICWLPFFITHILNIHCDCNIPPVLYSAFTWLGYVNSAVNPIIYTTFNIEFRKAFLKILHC
In data set [5] the target is T1, 5-hydroxytryptamine receptor 6. Put plainly: Binding affinity to 5-HT6R (unknown origin) assessed as inhibitory constant.
Data set [6] can be described thus: Half life in rat liver microsomes up to 60 mins by HPLC-LC/MS analysis.
The nature of the next data set: in vitro. To be noted: rat.
A further data set has as its system Rattus norvegicus. Put plainly: Reversal of phencyclidine-induced memory impairment in Sprague-Dawley rat at 1 to 3 mg/kg, po for 2 hrs followed by phencyclidine treatment 45 mins prior to testing by novel object recognition test. The class given is functional, organism-based.

Activity calls are given as the source filed them. The calls are words filed in the database; no cut-off is given here.

5-hydroxytryptamine receptor 7, sequence (P34969 whole entry): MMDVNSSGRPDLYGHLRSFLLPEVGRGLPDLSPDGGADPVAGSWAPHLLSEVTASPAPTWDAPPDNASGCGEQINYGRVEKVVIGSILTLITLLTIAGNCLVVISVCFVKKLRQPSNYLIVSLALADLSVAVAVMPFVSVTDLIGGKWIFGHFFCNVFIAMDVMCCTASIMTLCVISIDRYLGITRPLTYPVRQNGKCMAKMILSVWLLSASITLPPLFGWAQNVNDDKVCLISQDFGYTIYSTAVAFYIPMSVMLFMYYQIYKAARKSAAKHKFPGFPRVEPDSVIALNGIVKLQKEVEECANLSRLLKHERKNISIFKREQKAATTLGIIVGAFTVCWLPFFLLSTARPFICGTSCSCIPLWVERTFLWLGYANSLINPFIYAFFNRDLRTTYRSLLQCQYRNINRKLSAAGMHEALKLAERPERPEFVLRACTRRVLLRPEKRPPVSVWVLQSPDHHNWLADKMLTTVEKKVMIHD
T1 sequence (P50406 whole entry): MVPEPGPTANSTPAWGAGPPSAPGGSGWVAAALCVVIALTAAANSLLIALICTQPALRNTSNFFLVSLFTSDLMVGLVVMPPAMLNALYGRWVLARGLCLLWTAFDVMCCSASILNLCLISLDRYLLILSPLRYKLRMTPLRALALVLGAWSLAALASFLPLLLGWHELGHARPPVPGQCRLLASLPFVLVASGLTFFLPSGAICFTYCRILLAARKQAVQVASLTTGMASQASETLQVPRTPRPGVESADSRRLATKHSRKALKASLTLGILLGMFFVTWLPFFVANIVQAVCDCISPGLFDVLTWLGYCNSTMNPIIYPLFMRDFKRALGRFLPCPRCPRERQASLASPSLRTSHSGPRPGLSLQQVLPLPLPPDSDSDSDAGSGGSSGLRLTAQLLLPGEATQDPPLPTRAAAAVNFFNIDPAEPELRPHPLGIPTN

For the molecule `CCCN(CCc1c[nH]c2ccccc12)Cc1ccc(-c2ccccc2)o1`, the Ki in data set [1] turned out to be 334 nM.

With `COc1cccc(-c2ccc(CNCCc3c[nH]c4ccc(OC)cc34)o2)c1`, the Ki in [2] is 216 nM; in data set [1], 76 nM; in data set [3] it was 91 nM; in data set [4], 871 nM.

As to `COc1ccc2[nH]cc(CCNCc3ccc(-c4cnc5ccccc5c4)o3)c2c1`, the inhibition constant (Ki) was found to be 843 nM in [2]; 101 nM in data set [1]; 1050 nM in data set [3]; 1020 nM at D(2) dopamine receptor; 9860 nM in [4].

`COc1cccc(-c2ccc(CNC(C)Cc3cn(C)c4ccccc34)o2)c1` (centres undefined) gave a Ki in data set [1] of 1030 nM.

With `COc1ccc2[nH]cc(CCNCc3ccc(-c4cn[nH]c4)o3)c2c1`, the Ki in data set [2] came out at 28 nM; in data set [1] it was 121 nM; in data set [3], 146 nM; on D(2) dopamine receptor, 1730 nM; in [4], 1500 nM.

With `c1ccc(-c2ccc(CNCCc3c[nH]c4ccccc34)s2)cc1`, in data set [1], the Ki came out at 152 nM.

Take `CN1CCN(c2ccnc(SCc3ccccc3Cl)n2)CC1`: the Ki in data set [5] was determined as 8880 nM.

As for `COc1ccc(Cc2nc(N3CCNCC3)nc3cccnc23)c(OC)c1`, the inhibitory constant (Ki) in data set [5] is 58 nM.

Turning to `COc1ccc2occ(CCNCc3ccc(-c4ccc(O)cc4)o3)c2c1`, affinity in data set [1] was put at a Ki of 1700 nM.

The molecule `COc1cccc(-c2ccc(CNCCc3c[nH]c4cccc(OC)c34)o2)c1` returned a Ki in data set [1] of 247 nM.

Take `COc1ccc2[nH]c(C)c(CCNCc3ccc(-c4ccc(O)cc4)o3)c2c1`: the Ki in [2] was determined as 42 nM; in data set [1] it was 21 nM; at D(2) dopamine receptor it was 167 nM; in data set [4] it was 5320 nM. The molecule also returned a half-life at 1 h in data set [6] (liver microsomes) of 8 min. This molecule gave an intrinsic metabolic clearance (microsomal CLint) at 1 h in the data set “in vitro” (liver microsomes) of 184 µL/min/mg.

On to `COc1ccc2[nH]cc(CCNCc3ccc(-c4cccc(O)c4)o3)c2c1`, for which the Ki in data set [2] was 29 nM; in data set [1] it was 55 nM; in data set [3], 64 nM; on D(2) dopamine receptor, 391 nM; in [4], 3150 nM.

`c1coc(-c2ccc(CNCCc3c[nH]c4ccccc34)o2)c1`: the Ki in [1] turned out to be 419 nM.

`Fc1ccc2c(CCNCc3cccc(OCC(F)(F)C(F)F)c3)c[nH]c2c1` [IDALOPIRDINE]: the Ki worked out at 791 nM in data set [2], 3940 nM in data set [3], 1210 nM at D(2) dopamine receptor and 8640 nM in [4]. Moreover, the result in the data set on Rattus norvegicus was Active. This molecule displayed a half-life at 1 h in data set [6] (microsomes) of 14 min.

`O=[N+]([O-])c1ccc(-c2ccc(CNCCc3c[nH]c4ccccc34)o2)cc1`: in data set [1], the affinity, expressed as Ki, was 774 nM.

With `COc1ccc2[nH]cc(CCNCc3ccc(-c4ccc(O)cc4)o3)c2c1`, the inhibitory constant (Ki) came to 41 nM in data set [2]; 3 nM in [1]; 120 nM in data set [3]; 220 nM on D(2) dopamine receptor; 206 nM in data set [4]. This molecule gave a half-life at 1 h in [6] (liver microsomes) of 22 min. Moreover, the microsomal CLint at 1 h in the data set “in vitro” (liver microsomes) amounted to 63.4 µL/min/mg.

Consider `CN1CCN(c2nc(NCc3ccccc3)c3c(n2)N(C)NC3)CC1`, for which the inhibition constant (Ki) in [5] stood at 7 nM.

Take `c1ccc2c(-c3ccc(CNCCc4c[nH]c5ccccc45)o3)cccc2c1`: the Ki in data set [1] amounted to 201 nM.

In data set [1], `COc1ccc2[nH]cc(CCN(C)Cc3ccc(-c4ccc(O)cc4)o3)c2c1` gave a Ki of 199 nM. This molecule also had a half-life at 1 h in data set [6] (microsomes) of 10 min. The molecule further returned a microsomal CLint at 1 h in the data set “in vitro” (microsomes) of 138 µL/min/mg.

In turn, `c1ccc2c(-c3ccc(CNCCc4c[nH]c5ccccc45)s3)cccc2c1` yielded a Ki in [1] of 418 nM.

`Clc1cccc(-c2ccc(CNCCc3c[nH]c4ccccc34)o2)c1`: in [1], the affinity corresponds to a Ki of 185 nM.

`COc1cccc(-c2ccc(CNCCc3cn(C)c4ccccc34)o2)c1` yielded an inhibition constant (Ki) in data set [1] of 556 nM.

The molecule `COc1cccc2[nH]cc(CCNCc3ccc(-c4ccc(F)cc4)o3)c12` returned a Ki in data set [1] of 132 nM.

For the molecule `COc1ccc(-c2ccc(CNCCc3c[nH]c4ccccc34)o2)cc1OC`, affinity in data set [1] was put at a Ki of 693 nM.

Take `COc1cc2c(cc1OC)C(=O)C(CC1CCN(Cc3ccccc3)CC1)C2` (centres undefined) [DONEPEZIL]: in data set [6] (microsomes), the half-life at 1 h turned out to be 96 min. Also, the microsomal CLint at 1 h in the data set “in vitro” (microsomes) worked out at 14.4 µL/min/mg.

In [1], `CC(=O)Oc1ccc(-c2ccc(CNCCc3c[nH]c4ccccc34)o2)cc1` showed a Ki of 1460 nM.

Take `COc1ccc(-c2ccc(CNCCc3c[nH]c4ccc(OC)cc34)o2)cc1`: the inhibition constant (Ki) in data set [2] amounted to 35 nM; in data set [1] it was 90 nM; in [3], 334 nM; on D(2) dopamine receptor, 1360 nM; in data set [4] it was 3300 nM.

Consider `c1ccc2c(CCNCc3ccc(-c4ccc5c(c4)OCO5)o3)c[nH]c2c1`, for which, in [1], the Ki is 220 nM.

Consider `N=C(NC1=NC2CCCCC2C(=O)N1)N1CCC(Cc2ccccc2)CC1` (centres undefined), for which the inhibition constant Ki in [5] was 21 nM.

Consider `Oc1ccc(-c2ccc(CNCCc3c[nH]c4ccc(Cl)cc34)o2)cc1`, for which the figures for the Ki in data set [2], in data set [1] and in data set [3] were 33 nM, 60 nM and 431 nM, respectively.

In the case of `CN1CCN(c2oc(-c3ccccc3Cl)nc2S(=O)(=O)c2ccccc2)CC1`, in [5], the Ki came to 61 nM.

On to `Oc1ccc(-c2ccc(CNCCc3coc4ccc(F)cc34)o2)cc1`, for which the affinity in [1] corresponds to a Ki of 522 nM.

In the case of `COc1ccc2[nH]cc(CC(C)NCc3ccc(-c4ccc(O)cc4)o3)c2c1` (centres undefined), in data set [1], the Ki was determined as 345 nM.

In the case of `COc1ccc2[nH]cc(CCNCc3ccc(-c4ccc(Cl)cc4)o3)c2c1`, the Ki turned out to be 607 nM in data set [2]; 67 nM in data set [1]; 218 nM in data set [3]; 571 nM on D(2) dopamine receptor; 2170 nM in data set [4].

For the molecule `c1ccc(-c2ccc(CNCCc3c[nH]c4ccccc34)[nH]2)cc1`, the Ki in [1] was 264 nM.

On to `CCc1cc2c(N3CCN(C)CC3)nc(C)nc2s1`, for which the Ki in data set [5] was 316 nM.

On to `Cc1ccc2[nH]cc(CCNCc3ccc(-c4ccc(O)cc4)o3)c2c1`, for which the Ki in data set [2] was 22 nM; in [1], 5 nM; in data set [3], 399 nM; in data set [4], 51 nM.

On to `CN(CCc1c[nH]c2ccccc12)Cc1ccc(-c2ccccc2)o1`, for which the Ki amounted to 199 nM in [2]; 61 nM in data set [1]; 775 nM in [3]; 368 nM on D(2) dopamine receptor; 525 nM in data set [4].

With `Oc1c(CN2CCCC2)cc(CSc2ccccc2)c2cccnc12`, the Ki in [5] was found to be 894 nM.

Turning to `c1ccc(-c2ccc(CNCCc3c[nH]c4ccccc34)o2)cc1`, the Ki worked out at 461 nM in [2]; 91 nM in [1]; 125 nM in data set [3]; 676 nM on D(2) dopamine receptor; 1280 nM in [4].

Molecule `CC(Cc1c[nH]c2ccccc12)NCc1ccc(-c2ccc(O)cc2)o1` (centres undefined) showed a Ki in data set [1] of 475 nM.

Consider `Oc1ccc(-c2ccc(CNCCc3c[nH]c4cc(F)ccc34)o2)cc1`, for which the Ki worked out at 96 nM in data set [2]; 2 nM in [1]; 202 nM in data set [3]; 446 nM on D(2) dopamine receptor; 2730 nM in [4].

For `CC(CSc1nc2ccccc2c(=O)n1-c1ccc(Cl)cc1)N(C)C` (centres undefined), the Ki in [5] turned out to be 20 nM.

Molecule `Clc1cc(Cl)cc(-c2ccc(CNCCc3c[nH]c4ccccc34)o2)c1` yielded a Ki in data set [1] of 266 nM.

With `COc1cccc2[nH]cc(CCNCc3ccc(-c4ccccc4)o3)c12`, in [1], the Ki is 109 nM.

In the case of `CC1=CC=CN2C(=O)C3C=C(S(=O)(=O)c4ccccc4)C(=N)N(Cc4ccc(F)cc4)C3N=C12` (centres undefined), in data set [5], the Ki was 594 nM.

Turning to `Oc1ccc(-c2ccc(CNCCc3c[nH]c4ncccc34)o2)cc1`, the Ki in data set [1] amounted to 531 nM.

In [1], `Cn1cc(CCNCc2ccc(-c3ccccc3)o2)c2ccccc21` registered a Ki of 303 nM.

As to `Oc1ccc(-c2ccc(CNCCc3c[nH]c4ccccc34)o2)cc1`, the Ki stood at 175 nM in data set [2]; 7 nM in [1]; 292 nM in [3]; 757 nM at D(2) dopamine receptor; 1620 nM in data set [4]. The same molecule returned a half-life at 1 h in [6] (liver microsomes) of 6 min. In the data set “in vitro” (liver microsomes), this molecule had a microsomal CLint at 1 h of 222 µL/min/mg.

Consider `CN1C=C2C(NC(=S)NC2c2ccc(F)cc2)/C(=C\c2ccc(F)cc2)C1` (centres undefined), for which the Ki in data set [5] was 596 nM.

On to `CC(C)Oc1cccc(-c2ccc(CNCCc3c[nH]c4ccccc34)o2)c1`, for which, in data set [1], affinity was put at a Ki of 486 nM.

`COc1ccc2[nH]cc(CCNCc3ccc(-c4cc(Cl)cc(Cl)c4)o3)c2c1` displayed an inhibition constant Ki in data set [1] of 210 nM.

As for `Cc1cc(OCCN(C)C)nc(NCc2ccccc2)n1`, the Ki in data set [5] came to 875 nM.

`Cc1nc(N2CCCN(C)CC2)c2c3c(sc2n1)CCC3`: the Ki in [5] turned out to be 198 nM.

Consider `COc1cccc2[nH]cc(CCNCc3ccc(-c4ccc(O)cc4)o3)c12`, for which the Ki came out at 131 nM in [2]; 14 nM in [1]; 732 nM in data set [3]; 178 nM on D(2) dopamine receptor; 2100 nM in data set [4].
